Source: patent US8343957B2, “Therapeutic pyrazoloquinoline urea derivatives” (Dart Neuroscience (Cayman) Ltd., priority 2007, dated 2013)

The compounds below were run against GABAA central benzodiazepine receptor (assay: Benzodiazepine Binding Assay). Details: read-out: BZ binding Assay IC50; 1 nM (3H)-flunitrazepam, rat whole brain (except cerebellum) membranes, 60 minutes at 25° C.
With “5-(4-Isopropylpiperazine-1-carbonyl)-7,8-difluoro-4-methyl-2-phenyl-2,5-dihydro-pyrazolo-(4,3-c)quinolin-3-one [Compd 48]” the IC50 was > 1000 nM.
For `CC1CCN(C(=O)n2cc3c(=O)n(-c4ccccc4)nc-3c3ccccc32)CC1` [Compd 5, 5-(4-Methylpiperidine-1-carbonyl)-2-phenyl-2,5-dihydro-pyrazolo-(4,3-c)quinolin-3-one], the IC50 was < 1000 nM.
With `CC1CN(C(=O)n2cc3c(=O)n(-c4ccccc4)nc-3c3ccccc32)CC(C)O1` (centres unmarked) [Compd 6] the IC50 was < 1000 nM.
For `COCCN1CCN(C(=O)n2cc3c(=O)n(-c4ccccc4)nc-3c3ccccc32)CC1` [Compd 7, 5-(4-(2-Methoxyethyl)-piperazine-1-carbonyl)-2-phenyl-2,5-dihydro-pyrazolo-(4,3-c)quinolin-3-one], the IC50 was < 1000 nM.
`CC(C)N1CCN(C(=O)n2cc3c(=O)n(-c4ccccc4)nc-3c3ccccc32)CC1` [Compd 8, 5-(4-Isopropylpiperazine-1-carbonyl)-2-phenyl-2,5-dihydro-pyrazolo-(4,3-c)quinolin-3-one] was tested, and the IC50 was < 1000 nM.
For `CC1CCCN1C(=O)n1cc2c(=O)n(-c3ccccc3)nc-2c2ccccc21` (centres unmarked) [Compd 9, 5-(2-Methylpyrrolidine-1-carbonyl)-2-phenyl-2,5-dihydro-pyrazolo-(4,3-c) quinolin-3-one], the IC50 was < 1000 nM.
For `O=C(N1CCN(c2ccccc2)CC1)n1cc2c(=O)n(-c3ccccc3)nc-2c2ccccc21` [Compd 10, 5-(4-Phenylpiperazine-1-carbonyl)-2-phenyl-2,5-dihydro-pyrazolo-(4,3-c) quinolin-3-one], the IC50 was < 1000 nM.
In the case of `CC1CN(C(=O)n2cc3c(=O)n(-c4ccccc4)nc-3c3ccccc32)CC(C)N1` (centres unmarked) [Compd 11, 5-(3,5-Dimethylpiperazine-1-carbonyl)-2-phenyl-2,5-dihydro-pyrazolo-(4,3-c)quinolin-3-one], the IC50 is reported as < 1000 nM.
In the case of `O=C(N1CCCCC1)n1cc2c(=O)n(-c3ccccc3)nc-2c2ccccc21` [Compd 12, 5-(Piperidine-1-carbonyl)-2-phenyl-2,5-dihydro-pyrazolo-(4,3-c)quinolin-3-one], the IC50 is reported as < 1000 nM.
With `O=C(N1CCOCC1)n1cc2c(=O)n(-c3ccccc3)nc-2c2ccccc21` [Compd 13, 5-(Morpholine-4-carbonyl)-2-phenyl-2,5-dihydro-pyrazolo-(4,3-c)quinolin-3-one] the IC50 was > 1000 nM.
With `C=CCN1CCN(C(=O)n2cc3c(=O)n(-c4ccccc4)nc-3c3ccccc32)CC1` [Compd 14, 5-(4-Allylpiperazine-1-carbonyl)-2-phenyl-2,5-dihydro-pyrazolo-(4,3-c) quinolin-3-one] the IC50 was < 1000 nM.
With `CC(C)N1CCN(C(=O)n2cc3c(=O)n(-c4ccccc4F)nc-3c3ccccc32)CC1` [Compd 15, 5-(4-Isopropylpiperazine-1-carbonyl)-2-(2′-fluorophenyl)-2,5-dihydro-pyrazolo-(4,3-c)quinolin-3-one] the IC50 was < 1000 nM.
`CN1CCN(C(=O)n2cc3c(=O)n(-c4ccccc4F)nc-3c3ccccc32)CC1` [Compd 16, 5-(4-Methylpiperazine-1-carbonyl)-2-(2′-fluorophenyl)-2,5-dihydro-pyrazolo-(4,3-c)quinolin-3-one] was tested, and the IC50 was < 1000 nM.
In the case of `COc1ccc(-n2nc3c4ccccc4n(C(=O)N4CCN(C(C)C)CC4)cc-3c2=O)cc1` [Compd 17, 5-(4-Isopropylpiperazine-1-carbonyl)-2-(4′-methoxyphenyl)-2,5-dihydro-pyrazolo-(4,3-c)quinolin-3-one], the IC50 is reported as < 1000 nM.
`COc1ccc(-n2nc3c4ccccc4n(C(=O)N4CCN(C)CC4)cc-3c2=O)cc1` [Compd 18, 5-(4-Methylpiperazine-1-carbonyl)-2-(4′-methoxyphenyl)-2,5-dihydro-pyrazolo-(4,3-c)quinolin-3-one] was tested, and the IC50 was < 1000 nM.
`CC(C)N1CCN(C(=O)n2cc3c(=O)n(-c4ccccc4)nc-3c3cc(F)ccc32)CC1` [Compd 19, 5-(4-Isopropylpiperazine-1-carbonyl)-8-fluoro-2-phenyl-2,5-dihydro-pyrazolo-(4,3-c)quinolin-3-one] was tested, and the IC50 was < 1000 nM.
With `CN1CCN(C(=O)n2cc3c(=O)n(-c4ccccc4)nc-3c3cc(F)ccc32)CC1` [Compd 20, 5-(4-Methylpiperazine-1-carbonyl)-8-fluoro-2-phenyl-2,5-dihydro-pyrazolo-(4,3-c)quinolin-3-one] the IC50 was < 1000 nM.
`CC(C)N1CCN(C(=O)n2cc3c(=O)n(-c4ccccc4)nc-3c3cc(F)c(F)cc32)CC1` [Compd 21, 5-(4-Isopropylpiperazine-1-carbonyl)-7,8-difluoro-2-phenyl-2,5-dihydro-pyrazolo-(4,3-c)quinolin-3-one] was tested, and the IC50 was < 1000 nM.
In the case of `CN1CCN(C(=O)n2cc3c(=O)n(-c4ccccc4)nc-3c3cc(F)c(F)cc32)CC1` [Compd 22, 5-(4-Methylpiperazine-1-carbonyl)-7,8-difluoro-2-phenyl-2,5-dihydro-pyrazolo-(4,3-c)quinolin-3-one], the IC50 is reported as < 1000 nM.
For `COc1ccc2c(c1)c1nn(-c3ccccc3)c(=O)c-1cn2C(=O)N1CCN(C(C)C)CC1` [Compd 23, 5-(4-Isopropylpiperazine-1-carbonyl)-8-methoxy-2-phenyl-2,5-dihydro-pyrazolo-(4,3-c)quinolin-3-one], the IC50 was < 1000 nM.
In the case of `Cc1ccc2c(c1)c1nn(-c3ccccc3)c(=O)c-1cn2C(=O)N1CCN(C(C)C)CC1` [Compd 25, 5-(4-Isopropylpiperazine-1-carbonyl)-8-methyl-2-phenyl-2,5-dihydro-pyrazolo-(4,3-c)quinolin-3-one], the IC50 is reported as < 1000 nM.
For `Cc1ccc2c(c1)c1nn(-c3ccccc3)c(=O)c-1cn2C(=O)N1CCN(C)CC1` [Compd 26, 5-(4-Methylpiperazine-1-carbonyl)-8-methyl-2-phenyl-2,5-dihydro-pyrazolo-(4,3-c)quinolin-3-one], the IC50 was < 1000 nM.
`Cc1ccc2c(c1)c1nn(-c3ccccc3)c(=O)c-1cn2C(=O)N1CCC(O)CC1` [Compd 27, 5-(4-Hydroxypiperidine-1-carbonyl)-8-methyl-2-phenyl-2,5-dihydro-pyrazolo-(4,3-c)quinolin-3-one] was tested, and the IC50 was < 1000 nM.
With `Cc1ccc2c(c1)c1nn(-c3ccccc3)c(=O)c-1cn2C(=O)N1CCC(F)CC1` [Compd 28, 5-(4-Fluoropiperidine-1-carbonyl)-8-methyl-2-phenyl-2,5-dihydro-pyrazolo-(4,3-c)quinolin-3-one] the IC50 was < 1000 nM.
With `Cc1ccc2c(c1)c1nn(-c3ccccc3)c(=O)c-1cn2C(=O)N1CCCN(C)CC1` [Compd 29, 5-(4-Methylperhydro[1,4]-diazepine-1-carbonyl)-8-methyl-2-phenyl-2,5-dihydro-pyrazolo-(4,3-c)quinolin-3-one] the IC50 was < 1000 nM.
With `O=C(N1CCC(O)CC1)n1cc2c(=O)n(-c3ccccc3)nc-2c2ccccc21` [Compd 30, 5-(4-Hydroxypiperidine-1-carbonyl)-2-phenyl-2,5-dihydro-pyrazolo-(4,3-c)quinolin-3-one] the IC50 was > 1000 nM.
In the case of `CN(C)C(=O)n1cc2c(=O)n(-c3ccccc3)nc-2c2ccccc21` [Compd 32, 5-(Dimethylaminocarbonyl)-2-phenyl-2,5-dihydro-pyrazolo-(4,3-c)quinolin-3-one], the IC50 is reported as < 1000 nM.
`CN(C)C1CCN(C(=O)n2cc3c(=O)n(-c4ccccc4)nc-3c3ccccc32)CC1` [Compd 33, 5-(4-N,N-Dimethylaminopiperidine-1-carbonyl)-2-phenyl-2,5-dihydro-pyrazolo-(4,3-c)quinolin-3-one] was tested, and the IC50 was < 1000 nM.
`CC(C)N1CCN(C(=O)n2cc3c(=O)n(-c4ccccc4)nc-3c3cc(N4CCOCC4)ccc32)CC1` [Compd 34, 5-(4-Isopropylpiperazine-1-carbonyl)-8-morpholino-2-phenyl-2,5-dihydro-pyrazolo-(4,3-c)quinolin-3-one] was tested, and the IC50 was < 1000 nM.
In the case of `CC(C)N1CCN(C(=O)n2cc3c(=O)n(-c4ccc(Cl)cc4)nc-3c3cc(F)ccc32)CC1` [Compd 35, 5-(4-Isopropylpiperazine-1-carbonyl)-8-fluoro-2-(4-chlorophenyl)-2,5-dihydro-pyrazolo-(4,3-c)quinolin-3-one], the IC50 is reported as < 1000 nM.
`CN1CCN(C(=O)n2cc3c(=O)n(-c4ccccc4)nc-3c3ccccc32)CC1` [Compd 36, 5-(4-Methylpiperazine-1-carbonyl)-2-phenyl-2,5-dihydro-pyrazolo-(4,3-c)quinolin-3-one] was tested, and the IC50 was < 1000 nM.
With `O=C(N1CCN(c2ccccc2)CC1)n1cc2c(=O)n(-c3ccccc3)nc-2c2cc(F)ccc21` [Compd 37, 5-(4-Phenylpiperazine-1-carbonyl)-8-fluoro-2-phenyl-2,5-dihydro-pyrazolo-(4,3-c)quinolin-3-one] the IC50 was < 1000 nM.
For `COc1ccc(-n2nc3c4cc(F)c(F)cc4n(C(=O)N4CCN(C(C)C)CC4)cc-3c2=O)cc1` [Compd 38, 5-(4-Isopropylpiperazine-1-carbonyl)-7,8-difluoro-2-(4′-methoxyphenyl)-2,5-dihydro-pyrazolo-(4,3-c)quinolin-3-one], the IC50 was < 1000 nM.
In the case of `COc1ccc(-n2nc3c4cc(F)ccc4n(C(=O)N4CCN(C(C)C)CC4)cc-3c2=O)cc1` [Compd 39, 5-(4-Isopropylpiperazine-1-carbonyl)-8-fluoro-2-(4′-methoxyphenyl)-2,5-dihydro-pyrazolo-(4,3-c)quinolin-3-one], the IC50 is reported as < 1000 nM.
In the case of `CCCN1CCN(C(=O)n2cc3c(=O)n(-c4ccccc4)nc-3c3ccccc32)CC1` [Compd 40, 5-(4-Propylpiperazine-1-carbonyl)-2-phenyl-2,5-dihydro-pyrazolo-(4,3-c) quinolin-3-one], the IC50 is reported as < 1000 nM.
In the case of `Cc1cc2c(cc1F)c1nn(-c3ccccc3)c(=O)c-1cn2C(=O)N1CCN(C)CC1` [Compd 41, 8-Fluoro-7-methyl-5-(4-methylpiperazine-1-carbonyl)-2-phenyl-2,5-dihydro-pyrazolo-(4,3-c)quinolin-3-one], the IC50 is reported as < 1000 nM.
In the case of `COc1ccc2c(c1)c1nn(-c3ccccc3)c(=O)c-1cn2C(=O)N1CCN(C)CC1` [Compd 42, 8-Methoxy-5-(4-methylpiperazine-1-carbonyl)-2-phenyl-2,5-dihydro-pyrazolo-(4,3-c)quinolin-3-one], the IC50 is reported as < 1000 nM.
For `Cc1c2c(=O)n(-c3ccccc3)nc-2c2ccccc2n1C(=O)N1CCN(C(C)C)CC1` [Compd 43, 5-(4-Isopropylpiperazine-1-carbonyl)-4-methyl-2-phenyl-2,5-dihydro-pyrazolo[4,3-c]quinolin-3-one], the IC50 was < 1000 nM.
